Measurements published in PubChem BioAssay AID248 (DTP/NCI, 2004).
Values joined by “and” are separate entries in the source; they are usually repeats but may differ in a detail not shown here. Equal values may be shown once. Inconclusive results and toxic doses are left out. No stated cut-off is given here; in the data, active means T/C of 150% or more; inactive means T/C below 125%. Square brackets hold non-standard residues; d marks the D form. Peptide text beside a SMILES is read from it. * marks the point of attachment. ξ: configuration not given here. Cbz = O=C(OCc1ccccc1)*; ξNva = CCCC(N)C(=O)O

Tested on: L1210 leukemia ip in BDF1 mice, survival T/C
Experiment: NCI In Vivo Anticancer Drug Screen. Data for tumor model L1210 Leukemia (intraperitoneal) in B6D2F1 (BDF1) mice
Details: endpoint: mean survival time, higher = longer survival
How it was run: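 In this screen, tumor-bearing mice given compound are compared to those given vehicle, and their survival values are reported as a treated-to-control quotient.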

[1] = dose: 100.0 mg/kg/injection, schedule: Q04DX003 (ip), vehicle: saline with Tween-80
[2] = dose: 200.0 mg/kg/injection, schedule: Q04DX003 (ip), vehicle: saline with Tween-80
[3] = dose: 400.0 mg/kg/injection, schedule: Q04DX003 (ip), vehicle: saline with Tween-80
[4] = dose: 100.0 mg/kg/injection, schedule: Q04DX003 (ip), vehicle: Klucel (hydroxypropylcellulose) (HPC)
[5] = dose: 200.0 mg/kg/injection, schedule: Q04DX003 (ip), vehicle: Klucel (hydroxypropylcellulose) (HPC)
[6] = dose: 400.0 mg/kg/injection, schedule: Q04DX003 (ip), vehicle: Klucel (hydroxypropylcellulose) (HPC)
[7] = dose: 50.0 mg/kg/injection, schedule: Q01DX009 (ip), vehicle: saline
[8] = dose: 100.0 mg/kg/injection, schedule: Q01DX009 (ip), vehicle: saline
[9] = dose: 200.0 mg/kg/injection, schedule: Q01DX009 (ip), vehicle: saline
[10] = dose: 100.0 mg/kg/injection, schedule: Q04DX003 (ip), vehicle: saline
[11] = dose: 200.0 mg/kg/injection, schedule: Q04DX003 (ip), vehicle: saline
[12] = dose: 100.0 mg/kg/injection, schedule: Q01DX001 (ip), vehicle: other
[13] = dose: 200.0 mg/kg/injection, schedule: Q01DX001 (ip), vehicle: other
[14] = dose: 400.0 mg/kg/injection, schedule: Q01DX001 (ip), vehicle: other

Measured: T/C

CCOC(=O)C1CCc2c(ccc3ccccc23)N1CCC#N (stereo not drawn)
inactive: dose: 100.0 mg/kg/injection, schedule: Q01DX009 (ip), vehicle: carboxymethylcellulose (CMC) 95 % of control and 101 % of control | dose: 100.0 mg/kg/injection, schedule: Q04DX002 (ip), vehicle: carboxymethylcellulose (CMC) 97 % of control | dose: 100.0 mg/kg/injection, schedule: Q04DX003 (ip), vehicle: carboxymethylcellulose (CMC) 105 % of control | dose: 200.0 mg/kg/injection, schedule: Q01DX009 (ip), vehicle: carboxymethylcellulose (CMC) 98 % of control and 88 % of control | dose: 200.0 mg/kg/injection, schedule: Q04DX002 (ip), vehicle: carboxymethylcellulose (CMC) 91 % of control | dose: 200.0 mg/kg/injection, schedule: Q04DX003 (ip), vehicle: carboxymethylcellulose (CMC) 101 % of control | dose: 400.0 mg/kg/injection, schedule: Q01DX009 (ip), vehicle: carboxymethylcellulose (CMC) 97 % of control and 107 % of control | dose: 400.0 mg/kg/injection, schedule: Q04DX002 (ip), vehicle: carboxymethylcellulose (CMC) 97 % of control | dose: 400.0 mg/kg/injection, schedule: Q04DX003 (ip), vehicle: carboxymethylcellulose (CMC) 110 % of control

Cc1c(N)c(C)c([N+](=O)[O-])c(C)c1N
inactive: [1] 91 % of control | [2] 98 % of control | [3] 98 % of control

CC(=O)Nc1ccc(NCN2C(=O)c3ccccc3C2=O)cc1
inactive: [4] 100 % of control | [5] 97 % of control | [6] 97 % of control

CCCC(NC(=O)CNC(=O)CNC(=O)OCc1ccccc1)C(=O)O (stereo not drawn) (Cbz-Gly-Gly-[ξNva]-OH)
inactive: [4] 101 % of control | [5] 106 % of control | [6] 106 % of control

CC1OC2CC(=O)OC2C2=C1C(=O)c1c(O)c3c(c(O)c1C2=O)C1CC(O)C3(O)C(C)O1 (stereo not drawn)
inactive: dose: 0.01 mg/kg/injection, schedule: Q01DX Z (ip), vehicle: saline 112 % of control | dose: 0.03 mg/kg/injection, schedule: Q01DX Z (ip), vehicle: saline 98 % of control | dose: 0.05 mg/kg/injection, schedule: Q01DX Z (ip), vehicle: saline 90 % of control | dose: 0.1 mg/kg/injection, schedule: Q01DX Z (ip), vehicle: saline 95 % of control | dose: 0.2 mg/kg/injection, schedule: Q01DX Z (ip), vehicle: saline 95 % of control and 100 % of control | dose: 0.4 mg/kg/injection, schedule: Q01DX Z (ip), vehicle: saline 90 % of control | dose: 0.8 mg/kg/injection, schedule: Q01DX Z (ip), vehicle: saline 89 % of control | dose: 1.6 mg/kg/injection, schedule: Q01DX Z (ip), vehicle: saline 94 % of control | dose: 3.2 mg/kg/injection, schedule: Q01DX Z (ip), vehicle: saline 86 % of control | dose: 5.0 mg/kg/injection, schedule: Q01DX001 (ip), vehicle: saline 102 % of control | dose: 6.4 mg/kg/injection, schedule: Q01DX Z (ip), vehicle: saline 92 % of control | dose: 10.0 mg/kg/injection, schedule: Q01DX001 (ip), vehicle: saline 102 % of control | dose: 12.0 mg/kg/injection, schedule: Q01DX Z (ip), vehicle: saline 92 % of control | dose: 12.8 mg/kg/injection, schedule: Q01DX Z (ip), vehicle: saline 87 % of control | dose: 20.0 mg/kg/injection, schedule: Q01DX001 (ip), vehicle: saline 97 % of control | dose: 40.0 mg/kg/injection, schedule: Q01DX001 (ip), vehicle: saline 97 % of control

CN(C)C1CCCCCCC1
inactive: dose: 75.0 mg/kg/injection, schedule: Q01DX001 (ip), vehicle: acetone 95 % of control

NC(=O)c1[nH]cnc1[N+]1=NN(c2ccccc2)CC1
inactive: [7] 102 % of control | [8] 94 % of control | [9] 102 % of control

CCCCN=C(NCCCC)c1ccc(NC(=O)c2ccc(C(=O)Nc3ccc(C(=NCCCC)NCCCC)cc3)cc2)cc1
inactive: dose: 0.12 mg/kg/injection, schedule: Q01DX015 (ip), vehicle: methylcellulose (MC) 94 % of control | dose: 0.25 mg/kg/injection, schedule: Q01DX015 (ip), vehicle: methylcellulose (MC) 94 % of control | dose: 0.5 mg/kg/injection, schedule: Q01DX015 (ip), vehicle: methylcellulose (MC) 90 % of control | dose: 1.0 mg/kg/injection, schedule: Q01DX015 (ip), vehicle: methylcellulose (MC) 102 % of control | dose: 2.0 mg/kg/injection, schedule: Q01DX015 (ip), vehicle: methylcellulose (MC) 108 % of control | dose: 4.0 mg/kg/injection, schedule: Q01DX015 (ip), vehicle: methylcellulose (MC) 110 % of control | dose: 8.0 mg/kg/injection, schedule: Q01DX015 (ip), vehicle: methylcellulose (MC) 98 % of control

CCCC1(CCC)CN(C)C1=O
inactive: dose: 12.5 mg/kg/injection, schedule: Q01DX009 (ip), vehicle: saline 97 % of control | dose: 25.0 mg/kg/injection, schedule: Q01DX009 (ip), vehicle: saline 88 % of control | dose: 25.0 mg/kg/injection, schedule: Q04DX003 (ip), vehicle: saline 104 % of control | [7] 100 % of control | dose: 50.0 mg/kg/injection, schedule: Q04DX003 (ip), vehicle: saline 98 % of control | [8] 102 % of control | [10] 98 % of control | [9] 102 % of control | [11] 98 % of control

Oc1cc2c(cc1O)C1c3ccc(O)c(O)c3OCC1(O)C2 (stereo not drawn)
inactive: [8] 102 % of control | [10] 110 % of control | [9] 104 % of control | [11] 104 % of control | dose: 400.0 mg/kg/injection, schedule: Q01DX009 (ip), vehicle: saline 101 % of control | dose: 400.0 mg/kg/injection, schedule: Q04DX003 (ip), vehicle: saline 102 % of control

O=C(N/N=C/c1ccc2c(c1)OCO2)c1ccco1
inactive: [12] 96 % of control | [13] 93 % of control | [14] 98 % of control

O=C1CCCN1C[CH2][Sn]([c]1ccccc1)([c]1ccccc1)[c]1ccccc1
inactive: [7] 104 % of control | [8] 96 % of control | [9] 107 % of control

O=C(CNC(=O)OCc1ccccc1)NC(Cc1c[nH]c2ccccc12)C(=O)OCc1ccccc1 (stereo not drawn)
inactive: [1] 96 % of control | [2] 100 % of control | [3] 95 % of control

CC(C)OC(=O)Nc1cccc(Cl)c1
inactive: dose: 50.0 mg/kg/injection, schedule: Q01DX009 (ip), vehicle: saline sonified 100 % of control | dose: 100.0 mg/kg/injection, schedule: Q01DX009 (ip), vehicle: saline sonified 101 % of control | dose: 100.0 mg/kg/injection, schedule: Q04DX003 (ip), vehicle: saline sonified 87 % of control | dose: 200.0 mg/kg/injection, schedule: Q01DX009 (ip), vehicle: saline sonified 99 % of control | dose: 200.0 mg/kg/injection, schedule: Q04DX003 (ip), vehicle: saline sonified 94 % of control | dose: 400.0 mg/kg/injection, schedule: Q04DX003 (ip), vehicle: saline sonified 94 % of control

C=CCc1ccc(OC(=O)Nc2cccc(OC)c2)c(OC)c1
inactive: dose: 100.0 mg/kg/injection, schedule: Q01DX009 (ip), vehicle: Klucel (hydroxypropylcellulose) (HPC) 106 % of control | dose: 200.0 mg/kg/injection, schedule: Q01DX009 (ip), vehicle: Klucel (hydroxypropylcellulose) (HPC) 98 % of control | dose: 400.0 mg/kg/injection, schedule: Q01DX009 (ip), vehicle: Klucel (hydroxypropylcellulose) (HPC) 88 % of control

C[C@H]1CCC/C=C/[C@@H]2C[C@H](O)C[C@H]2[C@H](O)/C=C/C(=O)O1
inactive: dose: 100.0 mg/kg/injection, schedule: Q01DX001 (ip), vehicle: carboxymethylcellulose (CMC) 105 % of control | [12] 92 % of control | dose: 100.0 mg/kg/injection, schedule: Q01DX015 (ip), vehicle: water 96 % of control | dose: 200.0 mg/kg/injection, schedule: Q01DX001 (ip), vehicle: carboxymethylcellulose (CMC) 103 % of control | [13] 95 % of control | dose: 200.0 mg/kg/injection, schedule: Q01DX015 (ip), vehicle: water 103 % of control | [14] 93 % of control

O=[N+]([O-])c1ccc(-c2cc3ccccc3nc2Cl)cc1
inactive: dose: 100.0 mg/kg/injection, schedule: Q01DX001 (ip), vehicle: saline 92 % of control | dose: 200.0 mg/kg/injection, schedule: Q01DX001 (ip), vehicle: saline 90 % of control | dose: 400.0 mg/kg/injection, schedule: Q01DX001 (ip), vehicle: saline 101 % of control
